These results are taken from patent US10556926B2, “Synthetic artificial peptides with antimicrobial effect” (priority 2014, dated 2020).

No end group written: not given here.

In one series the test system is Staphylococcus xylosus. Kind of series: Mixed culture experiment (bacterially contaminated cell culture), bacteria. Type of series: cell-based. The settings on record: 25 and 50 μM peptide, two hours, with U937. As for the experimental part:
(§1) Destruction of the bacteria membranes by the antimicrobial peptides was investigated in a flow cytometric method with the help of a living/dead staining method in combination with an internal calibration and counting system. For this purpose, SYBR Green I (Sigma-Aldrich) was used as total staining and propidium iodide (Sigma-Aldrich) was used as contrast staining for membrane-damaged bacteria. […] The flow analysis was carried out on a Cytomics FC500 Instrument (Beckmann Coulter, Munich, Germany) equipped with an argon laser (488 nm) and the corresponding emission filters for SYBR Green I (525 nm) and propidium iodide (620 nm). […] Then, the mixture was incubated for 10 min in the dark at room temperature and then measured by flow cytometry. The number of events in each gate was captured and evaluated using the CXP Analyses 2.2 Software. The total number of living and dead bacteria was calculated. […]
(§2) The ability of the antimicrobial peptides to be used as a therapeutic active ingredient was investigated by reference to its selective antimicrobial properties in model mixed culture experiments. […] Then, the mixed cell cultures were stained and measured by flow cytometry as described in example 3, the measurement scale being adapted to the measurement of the larger eukaryotic cells.

In the next series the test system is human cell line U937. Kind of series: Mixed culture experiment (bacterially contaminated cell culture), eukaryotic cells. In kind it is cell-based. Particulars: 25 and 50 μM peptide, two hours, with S. xylosus. As for the experimental part:
as §1, §2

A further series concerns E. coli ML-35p. Kind of series: Kinetics of permeabilization of the outer bacteria membrane (nitrocefin). In kind it is cell-based, Escherichia coli. As for the experimental part:
The ability of the antimicrobial peptides for the respective permeabilization of the outer and inner bacteria membrane was tested by way of example on E. coli ML-35p (made available by Dr. R. E. Lehrer, Center for Health Sciences, Los Angeles, Calif., USA). The peptides were incubated in serial dilution with E. coli ML-35p and the time-dependent release of cell-internal components was measured in a slightly modified protocol according to Ericsson et al. (2002). For this purpose, the bacteria were cultured in Luria-Bertani (LB) medium with 100 μg/ml ampicillin (Fluka, Taufkirchen, Germany) until reaching an optical density of 0.4 at 600 nm wavelength. Then, the cells were washed three times by centrifugation at 4000 g for 1 min and subsequent up-take in 10 mM HEPES buffer pH 7.2. Finally, the cells were diluted to an optical density of 0.3 at 600 nm wavelength. To measure the permeabilization of the outer membrane, nitrocefin (Merck, Darmstadt, Germany) was diluted in HEPES buffer to a concentration of 60 μg/ml. The antimicrobial peptides were diluted in HEPES buffer to an end concentration of 12 μM, 24 μM, 48 μM and 96 μM end concentration. In the next step, 50 μl of nitrocefin were admixed with 50 μl of antimicrobial peptide and 50 μl of bacteria suspension such that an end concentration of 20 μg/ml of nitrocefin, 4 μM to 32 μM of antimicrobial peptide and bacteria with an optical density of 0.1 to 600 nm were present. The samples were mixed and the absorption at 500 nm wavelength was measured directly over a period of at least 90 min at 37° C. with regular shaking in a FLUOstar omega Microplate Reader (BMG Labtech, Ortenberg, Germany). The investigation of the permeabilization of the inner membrane was carried out in the same way except that instead of the nitrocefin accordingly 0-nitrophenyl-beta-D-galactoside (ONPG, Sigma-Aldrich) in an end concentration of 100 μg/ml was used and the absorption change was determined at a wavelength of 420 nm. The control used was samples without antimicrobial peptide, the positive control used for the membrane permeabilization was polymyxin B (Sigma-Aldrich) in an end concentration of 5 μM. For the data evaluation, firstly the measurement values of the corresponding negative controls were deducted from the measurement values of the samples, and the difference was then divided by the corresponding measurement values of the permeabilization control. Then, a graphical evaluation was carried out, the calculated values being plotted against the peptide concentration and being fitted with the help of the Origin Pro 8.1 G Software (OriginLab) according to a sigmoidal model.
As comparison parameter between the peptides, the times were ascertained from this at which 50% of the final signal level was reached. For this purpose, the equation with the percentage membrane permeabilization y, the time x in minutes, the lower plateau A1, the upper plateau A2, the point of inflection Log X0 and the Hill incline p
[formula] was used. The calculation of the parameters A1, A2, Log X0 and p was performed by the program by reference to the compensating curve. Further resolution of equation 5.1 for the case y=50 then produced for x the desired time at which the half-maximum signal level was reached.

As for `CC[C@H](C)[C@H](NC(=O)CN)C(=O)NCC(=O)N[C@@H](C)C(=O)N[C@H](C(=O)N[C@@H](CC(C)C)C(=O)N[C@@H](CCCCN)C(=O)N[C@H](C(=O)N[C@@H](CC(C)C)C(=O)N[C@H](C(=O)N[C@H](C(=O)NCC(=O)N[C@@H](CC(C)C)C(=O)N1CCC[C@H]1C(=O)N[C@@H](C)C(=O)N[C@@H](CC(C)C)C(=O)N[C@H](C(=O)N[C@@H](CO)C(=O)N[C@@H](Cc1c[nH]c2ccccc12)C(=O)N[C@H](C(=O)N[C@@H](CCCCN)C(=O)N[C@@H](CCCNC(=N)N)C(=O)N[C@@H](CCCCN)C(=O)N[C@@H](CCCNC(=N)N)C(=O)N[C@@H](CCC(N)=O)C(=O)N[C@@H](CCC(N)=O)C(N)=O)[C@@H](C)CC)[C@@H](C)CC)[C@@H](C)O)[C@@H](C)O)C(C)C)C(C)C` [Melittin], the “Killing of S. xylosus cells in mixed culture” value in the series on Staphylococcus xylosus was “comprehensive killing of bacteria cells”. Besides, in the series with human cell line U937, the “Effect on eukaryotic U937 cells in mixed culture” value is “destroys all of the eukaryotic U937 cells”.

With ILPWKWPWWPWRR [Indolicidin], the “Outer membrane, time to 50% of final signal” value in the series on E. coli ML-35p (4 μM peptide), with E. coli ML-35p (8 μM peptide), with E. coli ML-35p (16 μM peptide) and in the series on E. coli ML-35p (32 μM peptide) was above 90 min each time.

As to KILILIKRK-OH [N4], the “Outer membrane, time to 50% of final signal” value with E. coli ML-35p (4 μM peptide) came out at 54 min; with E. coli ML-35p (8 μM peptide), 49 min; in the series with E. coli ML-35p (16 μM peptide), 31 min; with E. coli ML-35p (32 μM peptide) it was 17 min.

With KRKRKILILIKRK-OH [N1], the “Outer membrane, time to 50% of final signal” value is reported as 21 min in the series on E. coli ML-35p (4 μM peptide), 14 min in the series on E. coli ML-35p (8 μM peptide), 12 min in the series with E. coli ML-35p (16 μM peptide) and 11 min in the series with E. coli ML-35p (32 μM peptide).

“MPRRRRSSSRPVRRRRRPRVSRRRRRRGGRRR (Protamine) [protamine from salmon, grade IV, histone-free (Sigma-Aldrich)]”: the “Outer membrane, time to 50% of final signal” value in the series on E. coli ML-35p (4 μM peptide), in the series with E. coli ML-35p (8 μM peptide), in the series with E. coli ML-35p (16 μM peptide) and in the series on E. coli ML-35p (32 μM peptide) was below 1 min each time.
